# Tests used:
# [1] = system: EV71 clinical isolate EV71 FY573; assay: Time of E02 addition assay, EV71 in RD cells; assay type: cell-based, Enterovirus 71; conditions: 32 μM of E02, MOI 10, 18 h
# Procedure: RD cells in 96-well plates were infected with MOI 10 EV71 clinical isolate EV71 FY573. In three periods at prior to, during, and post infection, 32 μM of E02 (dissolved in DMEM) or DMEM were added, EV71 replication was measured to determine the stage, in which E02 inhibits EV71 infection. Steps are detailed as follows:
# (1) Cell seeding: 24 h prior to infection, RD cells were seeded in 96-well cell culture plates, 5×10^4 cells per well;
# (2) Cells pre-incubated with drug: cell culture medium was removed from 96-well plates, each well was added 100 μl of DMEM, and then added 11 μl of 320 μM E02 solution (cell group treated with drug) or 11 μl of DMEM (cell group without drug treatment), incubated at 37° C. for 1 h.
# (3) Virus pre-incubated with drug: virus stock solution was diluted to 5×10^6 TCID50/ml with DMEM, dispensed to 96-well plates at 100 μl per well, and 11 μl of 320 μM E02 solution (B and C groups) or 11 μl of DMEM (A and F groups) were added, and incubated at 37° C. for 1 h.
# (4) Infection: After cells and virus were incubated for one hour, drug was discarded from cell culture plates. 111 μl of pre-incubated virus with drug (B and C groups) or DMEM (A and F groups) was transferred to cell culture plates. After 100 μl of virus solution was transferred to D and E groups, 11 μl of 320 μM E02 was added, and incubated at 37° C. for 1 h.
# (5) One hour after viral infection of cells, virus and drug mixture was discarded from cell culture plates. Cells were washed twice with 50 μl of DMEM. 180 μl per well of DMEM containing 2% FBS, 20 μl of 320 μM E02 solution (B, E, and F groups) or 20 μl of DMEM (A, C, and D groups) were added. […]
# (7) Viral load determination: EV71 5′UTR gene was detected using ABI Taqman one-step RT-PCR kit (ABI taqMan® One-Step RT-PCR, Cat #4309169) in ABI 7900HT 384-well plates PCR system. […]
# (8) PCR standard curves were used to convert CT values of PCR to viral load (standard curves were obtained by CT values determined by performing RT-PCR on RNA extracted from viruses with defined titers at 10-fold serial dilutions). […]
# [2] = system: EV71 clinical isolate (EV71 FY 573); assay: EV71 plaque forming units in RD cells; assay type: cell-based, Enterovirus 71; conditions: Enterovirus A, EV71 FY 573, 5-7 days, read-out: EC50 to reduce EV71 PFU in RD cells
# Procedure: EV71 (clinical isolate of EV71 FY 573) was used to infect RD cells cultured in 12-well plates at different E02 concentrations. After cultured for 5 to 7 days, stained and plaque forming units were calculated. Procedures are detailed as follows:
# (1) Cell seeding: 24 h prior to infection, RD cells were seeded in 12-well cell culture plates, 2×10^5 cells per well.
# (2) Infection of cells: • a. Virus pre-incubated with drug: virus stock solution was in 10-fold serially diluted with DMEM to 50,000 PFU/ml, 5,000 PFU/ml, and 500 PFU/ml; and dispensed to 12-well plates at 500 μl per well, and 56 μl of E02 dissolved in DMEM at corresponding concentration was added, and incubated at 37° C. for 1 h; • b. Cells pre-incubated with drug: cell culture medium was removed from 12-well plates, each well was added 500 μl DMEM, then added 56 μl of E02 solution at corresponding concentration, and incubated at 37° C. for 1 h; • c. After 1 h incubation, drug was discarded from cell culture plates, 556 μl of virus pre-incubated with drug was transferred to cell culture plates, and incubated at 37° C. for 1 h; • d. […]
# (3) After cultured for 5-7 days, gels were removed, stained with crystal violet, washed once with PBS, plaque numbers recorded and plaque forming units calculated.
# [3] = system: Coxsackie virus A16 (CVA16); assay: Coxsackie virus A16 TCID50 in RD cells; assay type: cell-based
# Description: Coxsackie virus A16 in 10-fold serial dilutions were used to infect RD cells at different E02 concentrations. After cultured for 2 days, CPE was observed under optical microscope, and stained with crystal violet, to calculate 50% tissue culture infective dose. Specific procedures were the same as the TCID50 testing method of Example 1.
structure (smiles),measurement,setting,value
"Cc1ccc(C(=O)Nc2ccc(S(=O)(=O)O)c3cc(S(=O)(=O)O)cc(S(=O)(=O)O)c23)cc1NC(=O)c1cccc(NC(=O)Nc2cccc(C(=O)Nc3cc(C(=O)Nc4ccc(S(=O)(=O)O)c5cc(S(=O)(=O)O)cc(S(=O)(=O)O)c45)ccc3C)c2)c1 [E02, Suramin Sodium]","inhibition of EV71 infection, E02 added after infection (F)",[1],could not inhibit EV71 infection
same,"inhibition of EV71 infection, E02 added during infection (D, E)",[1],can inhibit EV71 infection
same,"inhibition of EV71 infection, E02 added prior to infection (B, C)",[1],can inhibit EV71 infection
same,EC50,[2],2.6 µM
same,effect on CVA16 TCID50 in RD cells,[3]; 10 μM of E02,CVA16 TCID50 reduction
same,CVA16 titer in RD cells,"[3]; 25 μM of E02, reduced from 1×10^9 TCID50/ml, 2 days",1×10^4 TCID50/ml

# Reference: patent US9872875B2, “Component and method for treating viral disease” (Institut Pasteur of Shanghai, Chinese Academy of Sciences, priority 2012, dated 2018)
